The record followed here is US8071506B2, “Synergistic herbicidal composition containing florasulam for weed control in turf” (Dow AgroSciences LLC, priority 2009, dated 2011).

Assay in all cases: Field study of weed control in established turfgrass, percent control from visual weed cover
Assay [1] relates to White Clover (TRFRE). The class given is in vivo, Trifolium repens. The following applies: for Observed percent control: Florasulam GR 15 g ai/ha. On the procedure:
(§1) Field studies were conducted in established turfgrass sites containing a natural population of target broadleaf weeds. Replicated trials, containing a minimum of three replications and having individual plots ranging in size from 25 to 50 ft. sq, were initiated in the early spring with turf and weeds still in dormancy or just beginning active growth. Studies containing two components (florasulam and dithiopyr or pendimethalin) were timed to coincide with typical preemergent crabgrass (Digitaria sp.) timing at the study location. Studies containing three components (florasulam, dithiopyr or pendimethalin, Trimec (2,4-D+dicamba+MCPP-p) or Scotts Plus 2 (2,4-D+MCPP-p) were timed as previous for the florasulam and dithiopyr or pendimethalin components followed by an application of Trimec or Scotts Plus 2 at peak dandelion bloom which occurs approximately six weeks after a typical preemergent application. Granule treatments were uniformly applied to individual plots using a common hand-shaker or shaker table method. Liquid applications were applied with a CO2 backpack sprayer calibrated to deliver 40 to 100 GPA at 40 to 60 PSI. Applications were generally made in the early morning when dew was present. Natural rainfall and supplemental irrigation were used to maintain healthy turf and active weed growth throughout the study period. Weed control evaluations were made by visually assessing percent weed cover of each weed species in each plot at the initiation of the study and at each evaluation interval, converting to percent control using the following formula: (1−(B/A))*100
(§2) A=percent weed cover at study initiation
(§3) B=percent weed at a specific evaluation interval after application
(§4) Using this method, control ranges occur between 0 and 100 percent where 0 corresponds to no control and 100 corresponds to complete kill. Percent cover of each weed species was made at approximately 2, 4 and 8 weeks after treatment.
(§5) The following equation was used to calculate the expected activity of mixtures containing two active ingredients, A and B: Expected=A+B−(A×B/100)
(§6) A=observed efficacy of active component A at the same concentration as used in the mixture.
(§7) B=observed efficacy of active component B at the same concentration as used in the mixture.
(§8) The following equation was used to calculate the expected activity of mixtures containing three active ingredients, A and B and C: Expected=A+B+C−((A×B)+(A×C)+(B×C)/100)+(A×B×C/10,000)
(§9) C=observed efficacy of active component C at the same concentration as used in the mixture.

The subject of assay [2] is Dandelion (TAROF). The class given is in vivo, Taraxacum officinale. Here is the method: as §1, §2, §3, §4, §5, §6, §7, §8, §9
Assay [3] relates to Buckhorn Plantain (PLALA). The class given is in vivo, Plantago lanceolata. The following applies: 27 DAT in turf; Pendimethalin GR 2300 g ai/ha, Florasulam GR 15 g ai/ha. Here is the method:
as §1, with “Weed control evaluations were made by visually assessing percent weed cover of each weed species in each plot at the initiation of the study and at each evaluation interval, converting to percent control using the following formula: (1−(B/A))*100” left out

Where [4] appears, read: 28 DAT in turf, Dithiopyr GR 575 g ai/ha.
Where [5] appears, read: 36 DAT in turf, Dithiopyr GR 575 g ai/ha.
Where [6] appears, read: 62 DAT in turf, Dithiopyr GR 575 g ai/ha.
[7] abbreviates: 36 DAT in turf, Dithiopyr GR 575 g ai/ha, Florasulam GR 15 g ai/ha.
The mark [8] stands for this setting: 56 DAT in turf, Dithiopyr GR 575 g ai/ha, Florasulam GR 15 g ai/ha.
Setting [9] is: 57 DAT in turf, Dithiopyr GR 575 g ai/ha, Florasulam GR 15 g ai/ha, Trimec EC 4 Pt/A.
Setting [10] is: 58 DAT in turf, Dithiopyr 2EW 575 g ai/ha, Florasulam SC 15 g ai/ha.
[11] abbreviates: 59 DAT in turf, Dithiopyr GR 575 g ai/ha, Florasulam GR 15 g ai/ha, Trimec EC 4 Pt/A.
[12] abbreviates: 64 DAT in turf, Dithiopyr GR 575 g ai/ha, Florasulam GR 15 g ai/ha, Trimec EC 4 Pt/A.
Where [13] appears, read: 91 DAT in turf, Dithiopyr GR 575 g ai/ha, Florasulam GR 15 g ai/ha.
[14] abbreviates: 55 DAT in turf, Pendimethalin GR 2300 g ai/ha, Scotts Plus 2 125 Lb/A.
The mark [15] stands for this setting: applications made at the preemergent herbicide application timing.
Setting [16] is: 60 DAT in turf, Pendimethalin GR 2300 g ai/ha, Florasulam GR 15 g ai/ha, Scotts Plus 2 125 Lb/A.

Molecules are shown by their SMILES.

Consider `CSC(=O)c1c(C(F)F)nc(C(F)(F)F)c(C(=O)SC)c1CC(C)C` [Dithiopyr, S,S′-dimethyl 2-(difluoromethyl)-4-(2-methylpropyl)-6-(trifluoromethyl)-3,5-pyridinedicarbothioate], for which the Observed percent control is reported as 0% in assay [1] (setting [4]); 0% in assay [1] (setting [5]); 0% in assay [1] (setting [6]); 0% in assay [2] (setting [7]); 29% in assay [2] (setting [8]); 21% in assay [2] (setting [9]). The Observed percent control in assay [2] (setting [10]) is listed as 21.7%; in assay [2] (setting [11]) it was 27%; in assay [2] (setting [12]), 0%; in assay [2] (setting [13]), 19%.

For `COc1ncc(F)c2nc(S(=O)(=O)Nc3c(F)cccc3F)nn12` [Florasulam, N-(2,6-difluorophenyl)-8-fluoro-5-methoxyl[1,2,4]triazolo[1,5-c]pyrimidine-2-sulfonamide], the Observed percent control in assay [3] came out at 26.7%; in assay [1] (setting [4]), 86.8%; in assay [1] (setting [5]) it was 73%; in assay [1] (setting [14]), 62.5%; in assay [1] (setting [6]), 0%; in assay [2] (setting [7]) it was 20%. The Observed percent control in assay [2] (setting [8]) came to 0%; in assay [2] (setting [9]), 31%; in assay [2] (setting [10]) it was 70%; in assay [2] (setting [11]), 0%; in assay [2] (setting [16]), 20.6%; in assay [2] (setting [12]), 30%. The same compound had an Observed percent control in assay [2] (setting [13]) of 18%. In assay [1] (setting [15]), the “Control of white clover, in words” value was “effectively controls”. Moreover, the “Control of dandelion, in words” value in assay [2] (setting [15]) is “effectively controls”.

For `CCC(CC)Nc1c([N+](=O)[O-])cc(C)c(C)c1[N+](=O)[O-]` [Pendimethalin, N-(1-ethylpropyl)-3,4-dimethyl-2,6-dinitrobenzenamine], the Observed percent control in assay [3] stood at 0%; in assay [1] (setting [14]), 0%; in assay [2] (setting [16]) it was 21%.
